The Kinase Knowledgebase extract (Sharma et al. 2016)

target: ROCK2 (human) (UniProt O75116); test: Assessment of ROCK2 Kinase Activity
Sequence (O75116 whole entry, looked up): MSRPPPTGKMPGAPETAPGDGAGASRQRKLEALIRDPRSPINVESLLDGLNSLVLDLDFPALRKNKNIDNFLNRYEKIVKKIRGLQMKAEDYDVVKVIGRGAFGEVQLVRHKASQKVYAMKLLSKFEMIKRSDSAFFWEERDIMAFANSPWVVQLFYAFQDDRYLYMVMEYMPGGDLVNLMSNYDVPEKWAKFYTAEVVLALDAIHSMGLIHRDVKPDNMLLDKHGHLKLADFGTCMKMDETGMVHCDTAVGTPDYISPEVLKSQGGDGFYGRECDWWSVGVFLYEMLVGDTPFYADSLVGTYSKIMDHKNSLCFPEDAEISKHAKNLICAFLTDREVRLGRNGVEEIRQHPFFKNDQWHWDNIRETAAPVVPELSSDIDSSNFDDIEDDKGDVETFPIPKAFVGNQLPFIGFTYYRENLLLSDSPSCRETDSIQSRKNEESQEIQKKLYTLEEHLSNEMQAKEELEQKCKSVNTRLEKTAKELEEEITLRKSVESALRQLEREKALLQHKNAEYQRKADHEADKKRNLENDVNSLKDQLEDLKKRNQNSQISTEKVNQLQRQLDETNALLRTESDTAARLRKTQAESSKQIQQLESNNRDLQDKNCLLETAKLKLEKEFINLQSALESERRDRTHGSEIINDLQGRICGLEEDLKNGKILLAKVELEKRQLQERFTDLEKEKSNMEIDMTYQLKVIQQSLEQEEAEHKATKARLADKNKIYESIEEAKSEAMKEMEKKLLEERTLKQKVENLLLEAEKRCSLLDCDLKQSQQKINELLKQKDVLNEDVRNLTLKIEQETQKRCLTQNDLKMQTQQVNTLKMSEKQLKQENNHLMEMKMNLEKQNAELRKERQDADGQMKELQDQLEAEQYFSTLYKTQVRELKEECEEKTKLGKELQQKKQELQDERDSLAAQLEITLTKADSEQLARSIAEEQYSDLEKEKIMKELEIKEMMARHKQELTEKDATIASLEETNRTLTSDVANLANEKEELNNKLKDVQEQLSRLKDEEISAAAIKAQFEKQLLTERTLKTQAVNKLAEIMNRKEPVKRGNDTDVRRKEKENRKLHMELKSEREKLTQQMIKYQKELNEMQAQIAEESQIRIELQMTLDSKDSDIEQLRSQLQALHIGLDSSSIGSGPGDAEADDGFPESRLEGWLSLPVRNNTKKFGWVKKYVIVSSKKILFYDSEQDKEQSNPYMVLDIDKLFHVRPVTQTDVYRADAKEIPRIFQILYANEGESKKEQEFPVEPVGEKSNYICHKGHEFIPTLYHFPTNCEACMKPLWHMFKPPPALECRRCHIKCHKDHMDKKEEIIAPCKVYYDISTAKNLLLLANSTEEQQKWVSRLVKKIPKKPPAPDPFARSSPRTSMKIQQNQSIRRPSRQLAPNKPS

Structure (SMILES)	IC50 [nM]
O=c1[nH]ccc2cc(N[C@@H]3CCCN(Cc4ccc5ccccc5c4)C3)ccc12	≤ 1000
CCCc1cc2cnccc2cc1SC1CCNCC1	≤ 1000
O=c1[nH]ccc2cc(S(=O)(=O)C3CCNCC3)c(Cl)cc12	≤ 1000
O=c1[nH]ccc2cc(SC3CCNCC3)c(Cl)cc12	≤ 1000
CCCCN1CCC[C@@H](Nc2ccc3c(=O)[nH]ccc3c2)C1	≤ 1000
O=c1[nH]ccc2cc(N[C@H]3CCN(CC4CC4)C3)ccc12	≤ 1000
O=c1[nH]ccc2cc(NC3CN(Cc4ccccc4Cl)C3)ccc12	≤ 1000
Clc1cc2cnccc2cc1SC1CCCNC1 (stereo not given)	≤ 1000
O=c1[nH]ccc2cc(NC3CN(Cc4cccc(Cl)c4F)C3)ccc12	≤ 1000
O=c1[nH]ccc2cc(N[C@@H]3CCCN(Cc4ccccc4)C3)ccc12	≤ 1000

Other lines, results leading:

IC50 [nM]	Structure (SMILES)
≤ 1000	O=c1[nH]ccc2cc(N[C@H]3CCN(Cc4ccc5ccccc5c4)C3)ccc12
≤ 1000	CC(C)CCN1CCC[C@@H](Nc2ccc3c(=O)[nH]ccc3c2)C1
≤ 1000	Brc1cc2cnccc2cc1SC1CCCNCC1 (stereo not given)
≤ 1000	O=c1[nH]ccc2cc(N[C@H]3CCN(Cc4cccc(Cl)c4F)C3)ccc12
≤ 1000	Cc1ccc(CN2CC[C@H](Nc3ccc4c(=O)[nH]ccc4c3)C2)cc1
